# According to patent US20260250290A1 (BRISTOL-MYERS SQUIBB COMPANY, priority 2023, published 2026):
# pIC50: −log10 of the molar value.
# Molecular target: T1, SGK1 (Homo sapiens, UniProt O00141)
# T1 sequence (O00141 1-431): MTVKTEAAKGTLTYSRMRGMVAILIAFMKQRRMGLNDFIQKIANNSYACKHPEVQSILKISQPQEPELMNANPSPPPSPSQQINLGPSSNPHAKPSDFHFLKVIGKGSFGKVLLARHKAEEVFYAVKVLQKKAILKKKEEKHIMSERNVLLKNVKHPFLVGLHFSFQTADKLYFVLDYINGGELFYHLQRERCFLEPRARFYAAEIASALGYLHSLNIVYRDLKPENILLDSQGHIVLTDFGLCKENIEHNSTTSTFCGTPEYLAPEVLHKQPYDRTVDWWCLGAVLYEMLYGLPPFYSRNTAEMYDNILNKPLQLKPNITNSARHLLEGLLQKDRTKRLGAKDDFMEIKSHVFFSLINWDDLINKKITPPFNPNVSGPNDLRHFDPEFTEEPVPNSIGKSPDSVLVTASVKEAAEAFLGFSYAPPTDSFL
# Assay: SGK1 inhibition Assay B (Echo mass spectrometry of phosphorylated peptide product)
# Type: biochemical
# Details: 60 min at room temperature
row,pIC50,Compound
1,8.96,"COC[C@@H](C)NC1CCC(Oc2nc(C)sc2C(=O)N[C@@H]2CCCN(c3cc(C4=CC(=O)OC4)n4ncnc(N)c34)C2)CC1 (stereo partly drawn) [Example 996, N—((R)-1-(4-amino-7-(5-oxo-2,5-dihydrofuran-3-yl)pyrrolo[2,1-f][1,2,4]triazin-5-yl)piperidin-3-yl)-4-((4-(((R)-1-methoxypropan-2-yl)amino)cyclohexyl)oxy)-2-methylthiazole-5-carboxamide]"
2,9.00,"Cc1nc(O[C@H]2CC[C@@H](NC(C)C)CC2)c(C(=O)N[C@@H]2CCCN(c3cc(C4=CC(=O)OC4)n4ncnc(N)c34)C2)s1 [Example 977, N—((R)-1-(4-amino-7-(5-oxo-2,5-dihydrofuran-3-yl)pyrrolo[2,1-f][1,2,4]triazin-5-yl)piperidin-3-yl)-4-(((1s,4S)-4-(isopropylamino)cyclohexyl)oxy)-2-methylthiazole-5-carboxamide]"
3,8.52,"CC(=O)N1CC=C(c2cc(N3CCC[C@@H](NC(=O)c4sc(Cl)cc4O[C@@H]4C[C@H]5CC[C@@H](C4)O5)C3)c3c(N)ncnn23)C1 [Example 988, 3-(((IR,3s.5S)-8-oxabicyclo[3.2.1]octan-3-y1)oxy)-N-((R)-1-(7-(1-acetyl-2,5-dihydro-1H-pyrrol-3-y1)-4-aminopyrrolo[2,1-f][1,2,4]triazin-5-y1)piperidin-3-y1)-5-chlorothiophene-2-carboxamide]"
4,8.30,"COC(=O)N1CC=C(c2cc(N3CCC[C@@H](NC(=O)c4ccnc(N5CCN(C)CC5)n4)C3)c3c(N)ncnn23)C1 [Example 859, methyl (R)-3-(4-amino-5-(3-(2-(4-methylpiperazin-1-yl)pyrimidine-4-carboxamido)piperidin-1-yl)pyrrolo[2,1-f][1,2,4]triazin-7-yl)-2,5-dihydro-1H-pyrrole-1-carboxylate]"
5,8.70,"CC(=O)N1CC=C(c2cc(N3CCC[C@@H](NC(=O)c4sc(Cl)cc4OC4CCN(C)C(C)(C)C4)C3)c3c(N)ncnn23)C1 (single isomer, unassigned) [Example 948]"
6,8.00,"Cc1nc(OC2CC3CCC2CN3C)c(C(=O)N[C@@H]2CCCN(c3cc(-c4ccc(-n5cnnn5)nc4)n4ncnc(N)c34)C2)s1 (single isomer, unassigned) [Example 992]"
7,9.22,"Cc1nc(OC2CCC(N3CCC3)CC2)c(C(=O)N[C@@H]2CCCN(c3cc(-c4csc(C(N)=O)n4)n4ncnc(N)c34)C2)s1 (stereo partly drawn) [Example 1050, (R)-4-(4-amino-5-(3-(4-((4-(azetidin-1-yl)cyclohexyl)oxy)-2-methylthiazole-5-carboxamido)piperidin-1-yl)pyrrolo[2,1-f][1,2,4]triazin-7-yl)thiazole-2-carboxamide]"
8,7.05,"CCOC1=C(C(=O)N[C@@H]2CCCN(c3cc(C4=CCN(C(C)=O)C4)n4ncnc(N)c34)C2)CN(C2(C(F)(F)F)CC2)C1=O [Example 757, (R)-N-(1-(7-(1-acetyl-2,5-dihydro-1H-pyrrol-3-yl)-4-aminopyrrolo[2,1-f][1,2,4]triazin-5-yl)piperidin-3-yl)-4-ethoxy-5-oxo-1-(1-(trifluoromethyl)cyclopro-pyl)-2,5-dihydro-1H-pyrrole-3-carboxamide]"

row,Compound,pIC50
1,"COc1cc(-c2cc(N3CCC[C@@H](NC(=O)c4ccnc(N5CCN(C)CC5)n4)C3)c3c(N)ncnn23)ccc1-n1cnnn1 [Example 855, (R)-N-(1-(4-amino-7-(3-methoxy-4-(1H-tetrazol-1-yl)phenyl)pyrrolo[2,1-f][1,2,4]triazin-5-yl)piperidin-3-yl)-2-(4-methylpiperazin-1-yl)pyrimidine-4-carboxamide]",7.85
2,Cc1cc(-c2cc(N3CCC[C@@H](NC(=O)c4cccc(N5CC6(C5)CN(C(C)C)C6)n4)C3)c3c(N)ncnn23)ccc1-n1cnnn1 [Example 822],8.40
3,"N—((R)-1-(4-amino-7-(5-fluoro-1-(2-methoxyethyl)-6-oxo-1,6-dihydropyridin-3-yl)pyrrolo[2,1-f][1,2,4]triazin-5-yl)piperidin-3-yl)-5-chloro-3-(((1R,3s,5S)-8-methyl-8-azabicyclo[3.2.1]octan-3-yl)oxy)thiophene-2-carboxamide [Example 974]",9.00
